SMILES strings stand for the structures.

The first data set can be described thus: Reactivity index (RI) between compound and carrageenan, viscosity change (Test Examples 2, 10). Conditions: Test Example 2; uncoated compound, 10 ppm in 1 mass% carrageenan, vs methanol sample; 1.1<RI = viscosity decreased. It counts as physicochemical. The protocol: The measurement device, measurement, control sample, and D0 were the same as those in Test Example 1. An aqueous methanol solution containing a polyphenolic compound was prepared by dissolving the polyphenolic compound in an aqueous methanol solution (methanol concentration: 50 mass%) and diluted to 1 mg/mL in a measuring cylinder. 200 µL of this solution was added to 20 g of the same solution as the control sample (aqueous solution of 1 mass% carrageenan) and homogeneously mixed. The obtained solution was determined to be an uncoated sample. Additionally, a solution was prepared in the same manner as the uncoated sample, except that a 50% (v/v) aqueous methanol solution was used instead of the aqueous methanol solution containing a polyphenolic compound and determined to be a methanol sample. Evaluation Method: The progress distance (mm) of the control sample is D0. The progress distance (mm) of the uncoated sample is D1. The progress distance (mm) of the methanol sample is D1M. The reactivity index (RI) between a polyphenolic compound and carrageenan was calculated according to the following formula.
In this test system, the addition of an aqueous solution causes some decrease in viscosity due to a dilution effect. Thus, the determination method described above was used to detect the changes in viscosity due to the effect of a polyphenolic compound. Note that ±10% of the RI value was assumed to be within the margin of error (i.e., an RI value of 0.9 to 1.1 was assumed to be within the margin of error).
In the same manner as in Test Example 2, epigallocatechin gallate (polyphenolic compound), syringin and eleutheroside E (lignan compounds), and spermidine (basic substance) were prepared, and the effects of these substances on the viscosity of carrageenan were measured, and their reactivity was evaluated. Note that spermidine was dissolved in purified water, and the prepared aqueous solution was used as a sample.
Compound `O=C(/C=C/c1ccc(O)c(O)c1)O[C@@H]1C[C@](O)(C(=O)O)C[C@@H](O)[C@H]1O` [Comparative Example 3, Chlorogenic Acid] displayed an RI of 4.1.
The compound `O=C(OC[C@H]1O[C@@H](OC(=O)c2cc(O)c(O)c(OC(=O)c3cc(O)c(O)c(O)c3)c2)[C@H](OC(=O)c2cc(O)c(O)c(OC(=O)c3cc(O)c(O)c(O)c3)c2)[C@@H](OC(=O)c2cc(O)c(O)c(OC(=O)c3cc(O)c(O)c(O)c3)c2)[C@@H]1OC(=O)c1cc(O)c(O)c(OC(=O)c2cc(O)c(O)c(O)c2)c1)c1cc(O)c(O)c(OC(=O)c2cc(O)c(O)c(O)c2)c1` [Comparative Example 4, Tannic Acid] displayed an RI of 2.5.
Regarding `O=c1c(O)c(-c2ccc(O)c(O)c2)oc2cc(O)cc(O)c12` [Comparative Example 5, Quercetin], the RI was found to be 2.2.
The same measure, in the same setting: the figure for `Oc1ccc(C=Cc2cc(O)cc(O)c2)cc1` [Comparative Example 6, Resveratrol] is 3.5.

The data set is the same for the next values; noted with them: Test Example 10; uncoated compound, 10 ppm in 1 mass% carrageenan; spermidine dissolved in purified water.
`O=C(O[C@@H]1Cc2c(O)cc(O)cc2O[C@@H]1c1cc(O)c(O)c(O)c1)c1cc(O)c(O)c(O)c1` [Comparative Example 12, Epigallocatechin Gallate] displayed an RI of 4.4.
Take `COc1cc(/C=C/CO)cc(OC)c1O[C@@H]1O[C@H](CO)[C@@H](O)[C@H](O)[C@H]1O` [Comparative Example 13, Syringin]: the RI worked out at 2.3.
Same read-out and setting: to `COc1cc([C@H]2OC[C@@H]3[C@@H]2CO[C@H]3c2cc(OC)c(O[C@@H]3O[C@H](CO)[C@@H](O)[C@H](O)[C@H]3O)c(OC)c2)cc(OC)c1O[C@@H]1O[C@H](CO)[C@@H](O)[C@H](O)[C@H]1O` [Comparative Example 14, Eleutheroside E] belongs 2.1.
With `NCCCCNCCCN` [Comparative Example 15, Spermidine], the RI came out at 1.5.

The values above are taken from patent US20230276836A1, “ORAL RETENTION COMPOSITION” (BIZEN CHEMICAL CO., LTD., priority 2020, published 2023).
